Patent US7943583B2, “2-O-(β-D-glucopyranosyl) ascorbic acid, process for its production, and foods cosmetics containing compositions comprising it” (Suntory Holdings Limited, priority 2001, dated 2011)
Where two headings read alike, the source gives them in different places.

Assays:
[1] = test system: normal human dermal fibroblasts (NHDF); assay: Collagen synthesis by normal human dermal fibroblasts ([3H]proline incorporation, collagenase-digestible); assay type: cell-based; details: 100 μM, 48 hours, compared to 2-O-(α-D-glucopyranosyl)ascorbic acid or ascorbic acid
Procedure: Normal human dermal fibroblast cells (NHDF) were plated onto a 100 mm diameter dish at a cell count of 370,000. After 16 hours of culture, there was added 100 μM of 2-O-(β-D-glucopyranosyl)ascorbic acid dissolved in DMEM medium containing 10% FBS and 40% of 24-hour serum-free NHDF culture solution. After another hour, 0.12 mL (120 μCi) of L-[2,3-^3H]proline was added and culturing was continued for 48 hours. The medium was removed after culturing, and the cell sheet was rinsed 4 times with PBS. The cells were then treated with trypsin, lysed with an alkali, and then neutralized to obtain the intracellular protein. The fraction obtained by digesting this protein with Clostridium collagenase was measured in terms of radioactivity with a liquid scintillation counter using Scintisol EX-H. The intracellular protein fraction not treated with collagenase was also measured in terms of radioactivity using a liquid scintillation counter. The difference in radioactivities was calculated and recorded as the collagen synthesizing activity. For comparison, 2-O-(α-D-glucopyranosyl)ascorbic acid and ascorbic acid were examined in a similar manner, and the results are also shown in FIG. 7.

[2] = test system: human skin epidermal keratinocytes (HaCaT); assay: Protecting effect against cell death of HaCaT induced by UVB irradiation (WST-1 viable cell count); assay type: cell-based; details: compared to ascorbic acid or 2-O-(α-D-glucopyranosyl)ascorbic acid at the same concentration; added at 20-100 μM 2 h before UVB 35 mJ/cm^2
Procedure: The human skin epidermal keratinocyte line HaCaT (a cell line provided by Professor Fusenig of Heidelberg University) was plated on a 24-well plate at 10,000 cells/well with Dulbecco's modified Eagle medium (DMEM) containing 10% fetal bovine serum (FBS) and after 18 hours, the cells were irradiated with UVB (maximum wavelength: 312 nm) at 35 millijoules/square centimeter (mJ/cm^2). Two hours before irradiation, 2-O-(β-D-glucopyranosyl)ascorbic acid was added at 20-100 μM and removed with rinsing just before irradiation. The irradiation was performed in PBS in the absence of chemical agents, after which culturing was continued in DMEM containing 10% FBS, and the viable cell count was determined 24 hours after irradiation by measuring the mitochondrial dehydrogenase activity using 2-(4-iodophenyl)-3-(4-nitrophenyl)-5-(2,4-disulfophenyl)-2H-tetrazolium monosodium salt (WST-1). For comparison, 2-O-(α-D-glucopyranosyl)ascorbic acid and ascorbic acid were examined in a similar manner, and the results are also shown in FIG. 5.

[3] = Intestinal absorption in rat: portal vein plasma concentrations after oral administration; assay type: in vivo
Procedure: A solution of 2-O-(β-D-glucopyranosyl)ascorbic acid in Milli-Q Ultrapure Water (Millipore Corporation) (100 mg/4 mL) was orally administered at a dose of 100 mg/kg by using a feeding tube to overnight-starved and awake 10-week-old male Wistar rats (n=3) purchased from Nihon Charles River Co. After 0, 0.5, 2 and 4 hours, heparinized blood samples were collected from the portal vein and the plasma from each sample was separated by centrifugation (6000×g, 10 min). After addition of an equivalent of ice-cooled 10% metaphosphoric acid (containing 40 mM deferoxamine mesylate), the mixture was centrifuged (10,000×g, 10 min) to obtain protein-removed portal vein plasma, of which the unconverted 2-O-(β-D-glucopyranosyl)ascorbic acid and ascorbic acid concentrations were measured by high performance liquid chromatography (LC-10Ai System by Shimadzu Co., Ltd., Column: Inertsil ODS-3 (GL Science Co., Ltd., 3.0×150 mm, 5 μm), mobile phase: 15% MeOH-17 mM KH2PO4/H3PO4 (pH 3.5)-5 mM tetra-n-amylammonium bromide, flow rate: 0.3 mL/min, column temperature: 35° C., detection wavelength: 254 nm). The unconverted 2-O-(β-D-glucopyranosyl)ascorbic acid and the metabolite (ascorbic acid) were found present in maximum amounts 30 minutes after administration.

NHDF cells = assay: Reduction speed of telomere lengths (TRF Southern blot) in NHDF cells; assay type: cell-based, human
Procedure: The TRFs were separated by electrophoresis and the length of the telomere DNA was quantified with a labeled probe specifically binding to telomere. Details of the method used in the study is described in Life Sciences, Vol. 63, No. 11, 935-948 (1998).
The fibroblast cells (NHDF) from human skin epidermis were dispersed by treatment with trypsin, added into a 1.5 ml tube at 10^6/tube, centrifuged for 2 min. at 1,200 rpm at 4° C., and the supernatant was discarded. The pellet was washed two times with 1 ml RNase free PBS(−), the supernatant was removed as sufficiently as possible, and the cells were stored at −80° C. The frozen sample was restored to ambient temperature, genomic DNA was extracted by use of IsoQuick Nucleic Acid Extraction Kit (ORCA Research Inc.). The extracted DNA was dissolved in 10 mM Tris-HCl, 1 mM EDTA, pH8.0 to be stored at 4° C. The DNA content was determined by the fluorescent reader (Cytofluor 2350, Millipore Corporation) with the DNA binding reagent Hoechist 33258, and TRF was prepared by restricted digestion with HinfI treatment. The restricted digestion was carried out as follows. There were added into a 1.5 ml tube, 2 μl of 10× H buffer (TaKaRa, Kyoto), the solution of extracted genomic DNA (2 μg), sterilized water to make up 19 μl, and finally 1 μl of HinfI (6 U/μl, TaKaRa, Kyoto). […]

[4] = test system: human skin epidermal keratinocytes (HaCaT); assay: Intracellular ascorbic acid concentration in human skin epidermal keratinocytes (HPLC); assay type: cell-based; details: 100 μM, 3-24 hours after addition, compared with 2-O-(α-D-glucopyranosyl)ascorbic acid and ascorbic acid
Procedure: Human skin epidermal keratinocyte cells HaCaT were plated onto a 100 mm diameter dish at a cell count of 370,000. After 16 hours of culturing, there was added 100 μM of 2-O-(β-D-glucopyranosyl)ascorbic acid dissolved in DMEM containing 10% FBS and 40% of 24-hour serum-free HaCaT culture solution. The medium was removed 3-24 hours after the addition, rinsing was performed twice with ice-cooled PBS, and the cell sheet was treated with trypsin to obtain the separated cells. These were suspended in PBS containing 50 μM dithiothreitol (DTT) and rinsed 3 times by centrifugation. The cells received freeze-thawing twice were crushed with a Potter-type teflon homogenizer for 30 sec on the ice. The cell homogenate was centrifuged at 5° C., and supernate thus separated was stored on the ice. The supernatant was subjected to treatment with Molcut (product of Nihon Millipore Co., Ltd.; High-pressure ultrafiltration unit, nominal molecular weight limit (NMWL): 10,000, polyethersulfone membrane), and the amount of intracellular ascorbic acid was analyzed by high performance liquid chromatography (AS-8020 System by Toso Co., Ltd., column: Shodex ODSpak (4.6×150 mm, product of Showa Denko Co., Ltd.), mobile phase: 0.1 M KH2PO4—H3PO4 (pH 2.35)-0.1 mM EDTA-2 Na, flow rate: 1.5 mL/min) using a coulometric electrochemical detector (ESA Co., Bedford, Mass., 200 mV). […]

[5] = test system: normal human dermal fibroblast (NHDF) cells; assay: Population doubling level (PDL) of normal human dermal fibroblasts; assay type: cell-based; details: 100 μM
Procedure: Normal human dermal fibroblast (NHDF) cells were plated onto a 100 mm diameter dish at a cell density of 370,000. After 16 hours of culture in DMEM supplied with 10% FBS, the medium was replaced by DMEM fortified with 10% FBS and supplied with 40% of a domestic-conditioned medium containing 100 μM of 2-O-(β-D-glucopyranosyl)ascorbic acid. The cultivation was continued for 46-188 hours until cells reached a near confluent state. The domestic-conditioned medium was prepared by separately culturing NHDF cells to the state of near confluency, which was further cultivated in a serum-free medium for 24 hours, and collecting the culture supernatant, which was stored in a refrigerator and used within 3 days. In connection with the above 46-188 hours of cultivation, the medium was changed every 3 days with fresh DMEM fortified with 10% FBS and supplied with 40% of the domestic-conditioned medium containing 100 μM of 2-O-(β-D-glucopyranosyl)ascorbic acid. When medium change was made, the cell number in the old culture medium was counted and used in the PDL assessment. The number of cells adhering onto the plate was counted by Coulter counter. PDL value at the start of culture was taken as 0, and PDL values thereafter were calculated by the equation: PDL=log2(recovered cell number/seeded cell number). […]

[6] = rats; cited from earlier work

Row | collagen synthesis activity [1] | time of maximum amount of unconverted 2-O-(β-D-glucopyranosyl)ascorbic acid in portal vein plasma ([3]; Wistar rats, oral 100 mg/kg) [min] | unconverted form in the blood upon oral ingestion ([3]; rats, oral) | SMILES | effect of preventing cell death of HaCaT induced by UVB irradiation [2] | average reduction speed of telomere length (NHDF cells; 225 bp/PDL in the absence of any ascorbic acid derivative) [bp/PDL] | shortening of the speed of the telomere length to reduce to the critical length (NHDF cells; versus no ascorbic acid derivative) | intracellular ascorbic acid concentration [4] | PDL of NHDF greater than in the absence of ascorbic acid derivative (PDL 20.1) [5] [times] | unconverted form in the blood upon oral ingestion [6]
1 | increased activity | 30 | detected in the blood | O=C1O[C@H]([C@@H](O)CO)C(O)=C1O[C@@H]1O[C@H](CO)[C@@H](O)[C@H](O)[C@H]1O [2-O-(β-D-glucopyranosyl)ascorbic acid] | stronger effect of preventing cell death | 94 | approximately 42% | maintained at a higher concentration for the longest time | 2.62 | 
2 |  |  |  | O=C1O[C@H]([C@@H](O)CO)C(O)=C1O[C@H]1O[C@H](CO)[C@@H](O)[C@H](O)[C@H]1O [2-O-(α-D-glucopyranosyl)ascorbic acid] |  |  |  |  |  | no detection of the unconverted form in the blood
